Results published in ChEMBL document CHEMBL1909046, “DrugMatrix in vitro pharmacology data”.

Legend:
Adenosine receptor A2a = Adenosine receptor A2a (Homo sapiens, UniProt P29274); assay: DRUGMATRIX: Adenosine A2A radioligand binding (ligand: […]); format: cell membranes, HEK293, Membrane; settings: hek293; Not Active = under 50% inhibition at 10 µM
[1] = DRUGMATRIX: Phosphodiesterase PDE4 enzyme inhibition (substrate: [3H]cAMP + cAMP); settings: u-937, Not Active = under 50% inhibition at 10 µM
[2] = DRUGMATRIX: GABAA, Chloride Channel, TBOB radioligand binding (ligand: [3H] TBOB); format: cell membranes, Rattus norvegicus, Wistar, Cerebral cortex, Membrane; settings: Not Active = under 50% inhibition at 10 µM
Melanocortin receptor 3 = Melanocortin receptor 3 (Homo sapiens, UniProt P41968); format: cell membranes, Membrane; settings: hek293; note: in other assays of this panel Not Active means under 50% inhibition at 10 µM
Sequence of Melanocortin receptor 3 (P41968 whole entry): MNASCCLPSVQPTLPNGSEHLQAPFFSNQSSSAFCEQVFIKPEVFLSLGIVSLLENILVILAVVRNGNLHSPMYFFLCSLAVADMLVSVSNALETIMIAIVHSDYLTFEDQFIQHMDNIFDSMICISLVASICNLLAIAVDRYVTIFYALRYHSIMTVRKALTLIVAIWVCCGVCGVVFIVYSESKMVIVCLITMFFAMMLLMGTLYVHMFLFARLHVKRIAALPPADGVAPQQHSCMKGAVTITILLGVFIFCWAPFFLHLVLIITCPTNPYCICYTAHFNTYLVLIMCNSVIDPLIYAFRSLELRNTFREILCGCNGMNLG

[3] = molecular target: T1, Polyunsaturated fatty acid lipoxygenase ALOX15 (Oryctolagus cuniculus, UniProt P12530); assay: biochemical; format: tissue-based, Reticulocytes;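 note: inhibition of 15-lipoxygenase enzyme activity measured with linoleic acid as the substrate; in other assays of this panel Not Active means under 50% inhibition at 10 µM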
T1 sequence (P12530 whole entry): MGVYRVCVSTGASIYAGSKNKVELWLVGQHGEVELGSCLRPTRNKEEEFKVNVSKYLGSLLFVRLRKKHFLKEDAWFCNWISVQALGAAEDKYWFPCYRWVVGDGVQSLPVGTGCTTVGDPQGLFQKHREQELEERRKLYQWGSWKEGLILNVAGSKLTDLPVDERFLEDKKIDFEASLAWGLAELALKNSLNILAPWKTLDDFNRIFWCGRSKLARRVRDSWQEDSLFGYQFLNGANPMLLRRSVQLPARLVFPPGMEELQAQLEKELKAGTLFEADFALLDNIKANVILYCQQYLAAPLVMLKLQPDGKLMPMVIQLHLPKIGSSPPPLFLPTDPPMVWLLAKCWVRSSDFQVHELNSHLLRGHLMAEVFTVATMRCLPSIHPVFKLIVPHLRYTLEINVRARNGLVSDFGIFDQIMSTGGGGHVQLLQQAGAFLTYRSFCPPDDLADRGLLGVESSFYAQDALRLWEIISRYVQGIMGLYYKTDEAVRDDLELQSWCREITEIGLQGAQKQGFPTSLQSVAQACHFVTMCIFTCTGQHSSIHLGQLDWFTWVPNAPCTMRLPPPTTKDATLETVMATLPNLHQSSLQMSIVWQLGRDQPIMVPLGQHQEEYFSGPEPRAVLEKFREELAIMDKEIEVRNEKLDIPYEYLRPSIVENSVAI

[4] = DRUGMATRIX: GABAA, Muscimol, Central radioligand binding (ligand: [3H] Muscimol); format: cell membranes, Rattus norvegicus, Wistar, Brain, Membrane; settings: Not Active = under 50% inhibition at 10 µM

Sequence of Adenosine receptor A2a (P29274 whole entry): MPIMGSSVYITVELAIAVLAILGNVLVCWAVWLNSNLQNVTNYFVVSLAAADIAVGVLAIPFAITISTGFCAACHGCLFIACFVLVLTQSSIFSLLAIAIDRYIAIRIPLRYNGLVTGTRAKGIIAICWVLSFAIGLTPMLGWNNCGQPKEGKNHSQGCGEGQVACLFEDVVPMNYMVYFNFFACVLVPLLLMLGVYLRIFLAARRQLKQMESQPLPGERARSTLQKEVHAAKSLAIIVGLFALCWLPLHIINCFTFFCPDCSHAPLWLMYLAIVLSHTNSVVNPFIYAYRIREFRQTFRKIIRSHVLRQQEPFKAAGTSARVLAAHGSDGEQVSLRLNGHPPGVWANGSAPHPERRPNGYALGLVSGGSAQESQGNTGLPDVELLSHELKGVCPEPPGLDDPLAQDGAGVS

For CCOc1nc2cccc(C(=O)O)c2n1Cc1ccc(-c2ccccc2-c2nnn[nH]2)cc1, the IC50 (Adenosine receptor A2a) was “Not Active”, the IC50 ([1]; read-out: IC50) was 276 nM and the IC50 [2] was “Not Active”. The Ki [2] was “Not Active”, the IC50 (Melanocortin receptor 3) was “Not Active” and the IC50 ([3]; reticulocytes) was “Not Active”. For the same compound, the IC50 [4] was “Not Active” and the Ki [4] was “Not Active”.

For O=C(O)CCCc1cccs1, the IC50 (Adenosine receptor A2a) was “Not Active”, the IC50 [1] was “Not Active” and the Ki [1] was “Not Active”. For the same compound, the IC50 [2] was “Not Active”, the Ki [2] was “Not Active” and the IC50 (Melanocortin receptor 3) was “Not Active”. For the same compound, the IC50 ([3]; reticulocytes) was “Not Active”, the IC50 [4] was “Not Active” and the Ki [4] was “Not Active”.

With COc1ccccc1N the IC50 (Adenosine receptor A2a) was “Not Active”, the IC50 [1] was “Not Active” and the Ki [1] was “Not Active”. For the same compound, the IC50 [2] was “Not Active”, the Ki [2] was “Not Active” and the IC50 (Melanocortin receptor 3) was “Not Active”. For the same compound, the IC50 ([3]; read-out: IC50) was 2050 nM, the IC50 [4] was “Not Active” and the Ki [4] was “Not Active”.

In the case of O=C(c1ccccc1F)N1CCC(Cc2ccccc2)CC1, the IC50 (Adenosine receptor A2a) is reported as “Not Active”, the IC50 [1] is reported as “Not Active” and the Ki [1] is reported as “Not Active”. For the same compound, the IC50 [2] was “Not Active”, the Ki [2] was “Not Active” and the IC50 (Melanocortin receptor 3) was “Not Active”. For the same compound, the IC50 ([3]; reticulocytes) was “Not Active”, the IC50 [4] was “Not Active” and the Ki [4] was “Not Active”.

With Cc1c(O)cccc1C(=O)N[C@@H](CSc1ccccc1)[C@H](O)CN1C[C@H]2CCCC[C@H]2C[C@H]1C(=O)NC(C)(C)C the IC50 (Adenosine receptor A2a) was “Not Active”, the IC50 [1] was “Not Active” and the Ki [1] was “Not Active”. The IC50 [2] was “Not Active”, the Ki [2] was “Not Active” and the IC50 (Melanocortin receptor 3) was “Not Active”. For the same compound, the IC50 ([3]; read-out: IC50) was 13800 nM, the IC50 [4] was “Not Active” and the Ki [4] was “Not Active”.

In the case of CC(O)COC[C@H]1O[C@@H]2O[C@H]3[C@H](O)[C@@H](O)[C@@H](O[C@H]4[C@H](O)[C@@H](O)[C@@H](O[C@H]5[C@H](O)[C@@H](O)[C@@H](O[C@H]6[C@H](O)[C@@H](O)[C@@H](O[C@H]7[C@H](O)[C@@H](O)[C@@H](O[C@H]8[C@H](O)[C@@H](O)[C@@H](O[C@H]1[C@H](O)[C@H]2O)O[C@@H]8COCC(C)O)O[C@@H]7COCC(C)O)O[C@@H]6COCC(C)O)O[C@@H]5COCC(C)O)O[C@@H]4COCC(C)O)O[C@@H]3COCC(C)O (stereo partly drawn) [2-HYDROXYPROPYL-BETA-CYCLODEXTRIN], the IC50 (Adenosine receptor A2a) is reported as “Not Active”, the IC50 [1] is reported as “Not Active” and the Ki [1] is reported as “Not Active”. The IC50 [2] was “Not Active”, the Ki [2] was “Not Active” and the IC50 (Melanocortin receptor 3) was “Not Active”. For the same compound, the IC50 ([3]; reticulocytes) was “Not Active”, the IC50 [4] was “Not Active” and the Ki [4] was “Not Active”.

With NC(=O)c1cccc(N)c1 [3-AMINOBENZAMIDE] the IC50 (Adenosine receptor A2a) was “Not Active”, the IC50 [1] was “Not Active” and the Ki [1] was “Not Active”. For the same compound, the IC50 [2] was “Not Active”, the Ki [2] was “Not Active” and the IC50 (Melanocortin receptor 3) was “Not Active”. The IC50 ([3]; reticulocytes) was “Not Active”, the IC50 [4] was “Not Active” and the Ki [4] was “Not Active”.

In the case of C[C@H]1O[C@H](O[C@H]2[C@H](O)[C@@H](O)[C@@H](O[C@H]3[C@H](O)[C@@H](O)C(O)O[C@@H]3CO)O[C@@H]2CO)[C@H](O)[C@@H](O)[C@@H]1N[C@H]1C=C(CO)[C@@H](O)[C@H](O)[C@H]1O (some centres not stated) [ACARBOSE], the IC50 (Adenosine receptor A2a) is reported as “Not Active”, the IC50 [1] is reported as “Not Active” and the Ki [1] is reported as “Not Active”. The IC50 [2] was “Not Active”, the Ki [2] was “Not Active” and the IC50 (Melanocortin receptor 3) was “Not Active”. For the same compound, the IC50 ([3]; reticulocytes) was “Not Active”, the IC50 [4] was “Not Active” and the Ki [4] was “Not Active”.

With CC[C@H]1[C@@H]2C[C@H]3[C@@H]4N(C)c5ccccc5[C@]45C[C@@H]([C@@H]2[C@H]5O)N3[C@@H]1O [AJMALINE] the IC50 (Adenosine receptor A2a) was “Not Active”, the IC50 [1] was “Not Active” and the Ki [1] was “Not Active”. For the same compound, the IC50 [2] was “Not Active”, the Ki [2] was “Not Active” and the IC50 (Melanocortin receptor 3) was “Not Active”. The IC50 ([3]; reticulocytes) was “Not Active”, the IC50 [4] was “Not Active” and the Ki [4] was “Not Active”.

For NC12CC3CC(CC(C3)C1)C2 [AMANTADINE], the IC50 (Adenosine receptor A2a) was “Not Active”, the IC50 [1] was “Not Active” and the Ki [1] was “Not Active”. For the same compound, the IC50 [2] was “Not Active”, the Ki [2] was “Not Active” and the IC50 (Melanocortin receptor 3) was “Not Active”. The IC50 ([3]; reticulocytes) was “Not Active”, the IC50 [4] was “Not Active” and the Ki [4] was “Not Active”.

For Cn1c(=O)c2c(ncn2C)n(C)c1=O [CAFFEINE], the IC50 [1] was “Not Active”, the Ki [1] was “Not Active” and the IC50 [2] was “Not Active”. For the same compound, the Ki [2] was “Not Active”, the IC50 (Melanocortin receptor 3) was “Not Active” and the IC50 ([3]; reticulocytes) was “Not Active”. The IC50 [4] was “Not Active” and the Ki [4] was “Not Active”.
